Assays:
[1] = tested on: stimulated CD8+ T cells from WT vs. Sirt2−/− Pmel mice; experiment: IFN-γ ELISPOT assay of stimulated CD8+ T cells from WT vs. Sirt2−/− Pmel mice; format: cell-based, mouse; conditions: FIG. 3C
Protocol: (§1) FIG. 3: Sirtuins in the immune system. A, WB of Sirt1-3,5-7 expression in activated CD3+ T cells from WT vs. Sirt2−/− mice. ECAR measured by Seahorse analyzer (B) and IFN-γ ELISPOT assay (C) in stimulated CD8+ T cells from WT vs. Sirt2−/− Pmel mice treated with vehicle (Ctl), or Sirt6 inhibitor (Sirt6i). *P<0.05, **P<0.01, ****P<0.0001.
The number of IFN-γ producing cells was evaluated in an ELISPOT assay. Briefly, mouse TILs were plated at 1×10^5 cells and co-cultured with 1×10^3 irradiated B16F10 tumor cells (50 Gray) in the presence of the indicated concentrations of OSS, in a 96-well nitrocellulose flat-bottomed plate (ELISPOT plate, Millipore) pre-coated with an anti-mouse IFN-γ antibody (AN-18, Mabtech, Inc.) and incubated for 48 hr at 37° C. For Pmel T cells, splenocytes were first stimulated with gp100 (1 μg/ml, Anaspec) for 48 hr in the presence of the indicated concentrations of OSS and then transferred to the ELISPOT plate pre-coated with an anti-mouse IFN-γ antibody (AN-18, Mabtech, Inc.) for an additional 48 hr. […] After washing steps and successive biotinylated anti-IFN-γ antibody (R4-6A2, Mabtech, Inc.) and Streptavidin-HRP (BD Bioscience) labeling, spots were detected using AEC Substrate Kit (BD Biosciences) and counted using an AID ELISPOT Reader System (Autoimmun Diagnostika GmbH).

[2] = tested on: B16F10 cells; experiment: LDH release cytotoxic assay of Pmel T cells against B16F10 cells; format: cell-based, mouse; conditions: Pmel T cells ex vivo, OSS vs. DMSO, FIG. 7D
Protocol: (§2) Evaluation of functional cytotoxic activity was performed using Pierce™ LDH Cytotoxicity Assay Kit (Thermo Fisher Scientific) according to the manufacturer's protocol. B16F10 cells or human NSCLC autologous tumor cells were used as target cells. Mouse CD8+ enriched T cells from gp100-stimulated Pmel splenocytes or human NSCLC TILs were used as effector cells. Target tumor cells were co-cultured with effector cells in 96-well round-bottom microplates at the indicated effector:target ratios with and without Sirt6 inhibitor. After 6 hr, the percentage of specific LDH release was calculated according to the following formula: % cell lysis=(experimental value−effector cells spontaneous release−target cells spontaneous release)×100/(target cells maximum release−target cells spontaneous release), where “experimental” corresponds to the experimental signal value, “effector spontaneous” to spontaneous release of LDH from effector cells alone, “target spontaneous” to spontaneous release of LDH from target cells alone and “maximum release” to the maximum release of LDH from target cells in medium containing 1% Triton X-100.

[3] = tested on: activated CD3+ T cells; experiment: Seahorse extracellular flux analysis (ECAR/OCR) of activated CD3+ T cells; format: cell-based, mouse
Protocol: Spleens and/or lymph nodes (LN) were collected from C57BL/6J, Pmel and OT-II mice and were processed into single-cell suspensions. CD3+, CD4+ and CD8+ T cells were negatively enriched using Mouse Pan T cell, CD4^+ T cell and CD8^+ T Cell Isolation Kits™, respectively according to the manufacturer's instructions. The purity of the isolated cells was confirmed by flow cytometry (>95%). Purified T cells were cultured in complete RPMI 1640 medium (Thermo Fisher Scientific) supplemented with 10% (vol/vol) fetal bovine serum (FBS, Biowest) and 1% (vol/vol) penicillin/streptomycin (P/S, Thomas Scientific Inc.). T cells were activated with plate-bound anti-CD3 antibody (5 μg/ml, 145-2C11, BioXCell) for the indicated time periods. […]
Extracellular acidification rate (ECAR) and oxygen consumption rate (OCR) were measured using the Seahorse XF analyzer (Agilent technologies). […] For GST, ECAR and OCR were measured under basal conditions and in response to 10 mM glucose, 1 μM oligomycin and 50 mM 2-DG successively to calculate basal glycolytic rate, glycolytic capacity (in response to oligomycin), and glycolytic reserve (glycolytic capacity-basal rate). […] Results were normalized to total protein quantified using Pierce™ BCA Protein Assay Kit (Thermo Fisher Scientific).

[4] = tested on: patient-derived human NSCLC tumor cells; experiment: LDH cytotoxic assay of human NSCLC TILs co-cultured with autologous tumor cells; format: cell-based; conditions: ex vivo expanded autologous TILs co-cultured with patient-derived NSCLC tumor cells
Protocol: as §2

[5] = tested on: stimulated CD8+ T cells from WT vs. Sirt2−/− Pmel mice; experiment: Seahorse ECAR of stimulated CD8+ T cells from WT vs. Sirt2−/− Pmel mice; format: cell-based, mouse; conditions: FIG. 3B
Protocol: as §1
Extracellular acidification rate (ECAR) and oxygen consumption rate (OCR) were measured using the Seahorse XF analyzer (Agilent technologies). Glycolysis Stress Test (GST) and mitochondrial stress test (MST) were purchased from Agilent technologies and performed according to the kit manufacturer's instructions. […] For GST, ECAR and OCR were measured under basal conditions and in response to 10 mM glucose, 1 μM oligomycin and 50 mM 2-DG successively to calculate basal glycolytic rate, glycolytic capacity (in response to oligomycin), and glycolytic reserve (glycolytic capacity-basal rate). For MST, OCR and ECAR were measured under basal conditions and in response to sequential injections of 1 μM oligomycin, 1 μM FCCP (Carbonyl cyanide 4-trifluoromethoxyphenylhydrazone) and 0.5 μM rotenone/antimycin A to calculate basal respiration rates (baseline OCR-rotenone/antimycin A OCR), maximal respiration (FCCP OCR-rotenone/antimycin A OCR), and oxidative reserve (maximum respiration rate-basal respiration rate). […]

[6] = tested on: activated CD3+ T cells; experiment: RT-PCR mRNA levels in activated T cells; format: cell-based, mouse
From the text: Total RNA was extracted using the RNeasy Mini Kit (Qiagen; cat. #74106) and reverse transcribed using iScript™ (Biorad). cDNAs were amplified using the “SsoAdvanced™ Universal SYBR® Green Supermix” kit (Biorad) in the CFX Connect™ Real-Time System (Biorad). Sense and antisense primers used were for mouse Sirt6, GLUT1, HK, PFK, LDH, GLS and ASCT2 (primers designed by Biorad and provided as a mixture, PrimePCR™ SYBR® Green Assay).

[7] = activated T cells, Sirt6i vs. vehicle
[8] = activated CD3+ T cells, FIG. 8K

Question: How did the “effect on effector function (IFN-γ ELISPOT) with Sirt2 deficiency” value ([1]; Sirt2−/− Pmel CD8+ T cells) turn out when O=C(Nc1ccc(O)c(C(=O)O)c1)c1cccc(NC(=O)c2ccco2)c1 [OSS_128167] was run?
Answer: potentiated

Question: What about the “effector function of T cells (IFN-γ ELISPOT)” value [1, 7] of the same compound?
Answer: increases

Question: And the “cytotoxic activity against B16F10 cell challenge” value [2]?
Answer: superior cytotoxic activity

Question: And the “glycolytic flux (ECAR)” value ([3]; CD3-stimulated CD3+ T cells, OSS 25 μM or 50 μM vs. vehicle (DMSO), FIG. 6A)?
Answer: profoundly increased

Question: What about the “SRC in response to the mitochondrial decoupling agent (FCCP) (OCR)” value ([3]; activated T cells, pharmacologic inhibition, FIG. 6G) of the same compound?
Answer: increase

Question: And the TIL cytotoxic activity [4]?
Answer: enhanced

Question: And the “effect on metabolic activity (ECAR) with Sirt2 deficiency” value ([5]; Sirt2−/− Pmel CD8+ T cells)?
Answer: potentiated

Question: And the “metabolic activity of T cells (ECAR)” value [5, 7]?
Answer: increases

Question: What about the “mRNA expression levels of glutaminase (GLS)” value [6, 8] of the same compound?
Answer: increased

Question: What about the “mRNA expression levels of glutamine transporter (ASCT2)” value [6, 8] of the same compound?
Answer: increased

Question: And the “mRNA expression levels of glucose transporter (Glut1)” value ([6]; activated T cells, FIG. 8G)?
Answer: increased

Question: And the “mRNA expression levels of hexokinase (HK1)” value ([6]; activated T cells, FIG. 8G)?
Answer: increased

Question: And the “mRNA expression levels of lactate dehydrogenase A (LDHA)” value ([6]; activated T cells, FIG. 8G)?
Answer: increased

Question: What about the “mRNA expression levels of phosphofructokinase P (PFKP)” value ([6]; activated T cells, FIG. 8G) of the same compound?
Answer: increased

From US20250000907A1, “ENGINEERED IMMUNE CELLS WITH REDUCED SIRT6 EXPRESSION” (H. LEE MOFFITT CANCER CENTER AND RESEARCH INSTITUTE, INC., priority 2021, published 2025)
